Data reported in US20250082633A1, “COMPOUNDS AND METHODS FOR MODULATING SPLICING” (REMIX THERAPEUTICS INC., priority 2021, published 2025).
Where a name gives a salt, the structure may show the parent alone. Read-outs that look alike come from different tables or passages of the source.

Key:
[1] = tested on: HiBiT-tagged HTT protein in K562 cells; test: HiBit protein abundance assay, HTT; format: cell-based, human; details: K562 HiBiT-modified cells, 24 hours, luminescence
Protocol: Compounds described herein were used to screen for effects on quantitative protein abundance using a HiBit assay system (Promega). Quantitative protein abundance was determined by measuring the protein levels of HiBit-tagged protein targets expressed in cell culture via luminescence using the Nano-Glo HiBiT Lytic Detection System, which uses a split complementation assay format to reconstitute NanoBiT enzyme to generate a luminescent signal. A protein abundance assay was developed such that endogenous protein targets could be modified with the HiBiT peptide tag and their abundance could be assessed after compound treatment. Briefly, K562 cell lines containing a HiBiT-modification were treated with various compounds described herein (e.g., compounds of Formulas (I), (II), or (III)). After treatment for 24 hours, the protein abundance of a specific target was determined by measuring luminescence. • Promega Nano-Glo HiBiT Lytic Detection System (cat #N3030) • Corning 384-well TC-treated microplates (cat #3570) • Synthego Engineered Cells Knock-In Clones [table] Cells were maintained in IMDM with 10% FBS. Before the assay, cells were diluted with phenolphthalein-free growth media (IMDM+1% FBS media) and were seeded in a 384-well plate at a density of 10000 cells/well (for each cell line listed in Table 6). Each compound was prepared as a 10-point 3-fold serial dilution in DMSO with the top dose at a final concentration of 10 μM in the well. Unmodified K562 cells were added at the previously specified density with DMSO to serve as an assay baseline and positive control (PC) and DMSO only with the respective modified cell lines was added to the negative control (NC) columns. Final DMSO concentration was kept at or below 0.25%. Treated cell plates were placed in an incubator at 37° C. with 5% CO2 for 24 hours. After 24 hours, 25 μL of Complete HiBit Lytic reagent was added to each well at room temperature (e.g. one plate requiring 10 mL Lytic Buffer, 100 μL LgBiT Protein, 200 μL Lytic Substrate), shaken for 5 minutes at 600 RPM, then left to sit for 10 minutes for signal to stabilize before reading on a Spark Cyto plate reader (Tecan) with a 500 ms measurement time. To determine compound effects on protein abundance of each target in Table 6, the percent response for each respective cell line was calculated at each compound concentration as follows: For the normalized response at each concentration, a four-parameter logistical regression was fit to the data and the response was interpolated at the 50% value to determine a concentration for protein abundance at 50% (IC50) the untreated control.

[2] = tested on: MYB mRNA; test: RT-qPCR splicing assay, MYB canonical (CJ) and alternative (AJ) junction mRNA; format: cell-based; details: Homo sapiens; for IC50: read-out: MYB CJ IC50; for AC50: read-out: MYB AJ AC50
How it was run: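 Splice-junction mRNAs (CJ, AJ) measured by TaqMan one-step RT-qPCR on cell lysates, using PPIA as reference for adherent A673 and GAPDH or GUSB for K562. Cells exposed for 24 h to 11 threefold concentrations up to 10 uM final, with DMSO at or below 0.25%.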

[3] = decrease in CJ mRNA levels, larger panel of genes, Table 3
[4] = decrease in canonical junction mRNA, A673 or K562 cells, 24 hours treatment, Table 2
[5] = increase in alternative junction mRNA, A673 or K562 cells, 24 hours treatment, Table 2

Structure (SMILES) | IC50 [1] [µM] | IC50 [2, 3] [µM] | IC50 [2, 4] [µM] | AC50 [2, 5] [µM] | AC50 ([2]; 24 h) [µM] | IC50 ([2]; 24 h) [µM] | IC50 [2] [µM]
Cc1cn2cc(-c3cc(F)c4nn(C5CCNCC5)cc4c3)nc(C)c2n1 [Compound 132, 6-[7-fluoro-2-(4-piperidyl)indazol-5-yl]-2,8-dimethyl-imidazo[1,2-a]pyrazine] | 0.1 to 1 | 1 to 10 | 1 to 10 | 1 to 10 |  |  | 
Cc1nc2ccc(-c3cc(F)c4nn(C5CCNCC5)cc4c3)cc2s1 [Compound 134, 6-(7-fluoro-2-(piperidin-4-yl)-2H-indazol-5-yl)-2-methylbenzo[d]thiazole] | 1 to 10 | 1 to 10 | 1 to 10 | > 10 |  |  | 
Cc1ccc2nc(-c3cc(F)c4nn(C5CCNCC5)cc4c3)ccc2n1 [Compound 157, 2-[7-fluoro-2-(4-piperidyl)indazol-5-yl]-6-methyl-1,5-naphthyridine] | 1 to 10 | 1 to 10 | 1 to 10 | > 10 |  |  | 
Cn1cc2cc(-c3ccc4cn(C5CCNCC5)nc4c3)cc(F)c2n1 [Compound 148, 7-fluoro-2-methyl-5-[2-(4-piperidyl)indazol-6-yl]indazole] | 1 to 10 | > 10 | > 10 | > 10 |  |  | 
Cc1cn2nc(-c3cc(F)c4nn(C5CCNCC5F)cc4c3)cc(C)c2n1 (stereo not shown) [Compound 166, 6-[7-fluoro-2-(3-fluoro-4-piperidyl)indazol-5-yl]-2,8-dimethyl-imidazo [1,2-b]pyridazine] | < 0.1 | 0.1 to 1 | 0.1 to 1 | 0.1 to 1 |  |  | 
Cc1cn2nc(-c3cc(F)c4nn(C5CCN(C)C6(CC6)C5)cc4c3)cc(C)c2n1 (stereo not shown) [Compound 174, 6-[7-fluoro-2-(4-methyl-4-azaspiro[2.5]octan-7-yl)indazol-5-yl]-2,8-dimethyl-imidazo[1,2-b]pyridazine] | < 0.1 | 0.1 to 1 | 0.1 to 1 | 0.1 to 1 |  |  | 
Cc1c(O)c(-c2cc(F)c3nn(C4CCNCC4)cc3c2)cc2cn(C)nc12 [Compound 126, 5-[7-fluoro-2-(4-piperidyl)indazol-5-yl]-2,7-dimethyl-indazol-6-ol] | 1 to 10 | > 10 | > 10 | > 10 |  |  | 
Cc1cn2nc(-c3cc(F)c4nn(C5CCN(CCO)C6(CC6)C5)cc4c3)cc(C)c2n1 (stereo not shown) [Compound 180, 2-[7-[5-(2,8-dimethylimidazo[1,2-b]pyridazin-6-yl)-7-fluoro-indazol-2-yl]-4-azaspiro[2.5]octan-4-yl]ethanol] | < 0.1 |  |  |  | 0.1 to 1 | 0.1 to 1 | 0.1 to 1
Cc1cn2nc(-c3cc4cn(C5CCNCC5)nc4c(OCc4ccccc4)n3)cc(C)c2n1 [Compound 153, 6-[7-benzyloxy-2-(4-piperidyl)pyrazolo [3,4-c]pyridin-5-yl]-2,8-dimethyl-imidazo[1,2-b]pyridazine] | 1 to 10 | 1 to 10 | 1 to 10 | > 10 |  |  | 
Cc1cn2nc(-c3cc(F)c4nn([C@@H]5CCNC6(CC6)C5)cc4c3)cc(C)c2n1 [Compound 173] | < 0.1 | 0.1 to 1 | 0.1 to 1 | 0.1 to 1 |  |  | 
Cc1cn2nc(-c3cc4cn(C5CCNCC5)nc4cc3O)cc(C)c2n1 [Compound 154, 5-(2,8-dimethylimidazo[1,2-b]pyridazin-6-yl)-2-(piperidin-4-yl)-2H-indazol-6-ol] | < 0.1 | 0.1 to 1 | 0.1 to 1 | 0.1 to 1 |  |  | 
Cc1cn2nc(-c3cc(F)c4nn([C@H]5CCNC[C@@H]5F)cc4c3)cc(C)c2n1 [Compound 167, 6-(7-fluoro-2-((3S,4S)-3-fluoropiperidin-4-yl)-2H-indazol-5-yl)-2,8-dimethylimidazo[1,2-b]pyridazine] | 0.1 to 1 | 1 to 10 | 1 to 10 | 1 to 10 |  |  | 
Cc1cn2nc(-c3cc(F)c4nn(C5CCN(CC6CC6)C6(CC6)C5)cc4c3)cc(C)c2n1 (stereo not shown) [Compound 183, 6-[2-[4-(cyclopropylmethyl)-4-azaspiro[2.5]octan-7-yl]-7-fluoro-indazol-5-yl]-2,8-dimethyl-imidazo[1,2-b]pyridazine] | < 0.1 | 0.1 to 1 | 0.1 to 1 | 0.1 to 1 |  |  | 
COc1cc(-c2cc3cn(C)nc3cc2O)nc2cn(C3CCNCC3)nc12 [Compound 140, 5-[7-methoxy-2-(4-piperidyl)pyrazolo[4,3-b]pyridin-5-yl]-2-methyl-indazol-6-ol] | 1 to 10 | 1 to 10 | 1 to 10 | 1 to 10 |  |  | 
Fc1cc(-c2ccc3cnccc3c2)cc2cn(C3CCNCC3)nc12 [Compound 161, 6-[7-fluoro-2-(4-piperidyl)indazol-5-yl]isoquinoline] | 0.1 to 1 | 1 to 10 | 1 to 10 | 1 to 10 |  |  | 
Cc1cn2nc(-c3cc(F)c4nn(C5CCNCC5)cc4c3)cc2c(C)n1 [Compound 124, 2-[7-fluoro-2-(4-piperidyl)indazol-5-yl]-4,6-dimethyl-pyrazolo[1,5-a]pyrazine] | < 0.1 | 0.1 to 1 | 0.1 to 1 | 0.1 to 1 |  |  | 
CCN1CCC(n2cc3cc(-c4cc(C)c5nc(C)cn5n4)cc(F)c3n2)CC1 [Compound 146, 6-[2-(1-ethyl-4-piperidyl)-7-fluoro-indazol-5-yl]-2,8-dimethyl-imidazo[1,2-b]pyridazine] | < 0.1 | 0.1 to 1 | 0.1 to 1 | 0.1 to 1 |  |  | 
Cc1cn2nc(-c3cc(F)c4nn(C5CCN(CCO)CC5)cc4c3)cc(C)c2n1 [Compound 160, 2-[4-[5-(2,8-dimethylimidazo[1,2-b]pyridazin-6-yl)-7-fluoro-indazol-2-yl]-1-piperidyl]ethanol] | < 0.1 |  |  |  | 0.1 to 1 | 0.1 to 1 | 0.1 to 1
COc1cc2nn(C3CCNCC3)cc2cc1-c1cc(C)c2nc(C)cn2n1 [Compound 159, 6-(6-methoxy-2-(piperidin-4-yl)-2H-indazol-5-yl)-2,8-dimethylimidazo[1,2-b]pyridazine] | > 10 | > 10 | > 10 | > 10 |  |  | 
Cc1cn2nc(-c3cc4cn(C5CCNCC5)nc4cn3)cc(C)c2n1 [Compound 147, 2,8-dimethyl-6-[2-(4-piperidyl)pyrazolo[3,4-c]pyridin-5-yl]imidazo[1,2-b]pyridazine] | 0.1 to 1 | 0.1 to 1 | 0.1 to 1 | 0.1 to 1 |  |  | 
Cc1cn2nc(-c3cc4cn(C5CCNCC5)nc4c(O)n3)cc(C)c2n1 [Compound 139, 5-(2,8-dimethylimidazo[1,2-b]pyridazin-6-yl)-2-(4-piperidyl)-6H-pyrazolo[3,4-c]pyridin-7-one] | 0.1 to 1 | 0.1 to 1 | 0.1 to 1 | 0.1 to 1 |  |  | 
Cc1cn2nc(-c3cc(F)c4nn(C5CCNCC5)cc4c3)cc(C)c2n1 [Compound 122, 6-(7-fluoro-2-(piperidin-4-yl)-2H-indazol-5-yl)-2,8-dimethylimidazo [1,2-b]pyridazine hydrochloride salt] | < 0.1 |  |  |  | < 0.1 | < 0.1 | < 0.1
